Source: ChEMBL document CHEMBL4312009, “Multigram scale synthesis of polycyclic lactones and evaluation of antitumor and other biological properties” (Eur J Med Chem, 2020)

Assays:
[1] = test system: GTPase KRas (Homo sapiens), P01116 [UNDEFINED MUTATION]; assay: Inhibition of KRas mutant in human SW480 cells assessed as cell viability by measuring ATP at 0.2 uM relative to control; assay type: cell-based
[2] = test system: GTPase KRas (Homo sapiens), P01116 [UNDEFINED MUTATION]; assay: Inhibition of KRas mutant in human SW480 cells assessed as cell viability by measuring ATP at 2 uM relative to control; assay type: cell-based
[3] = test system: GTPase KRas (Homo sapiens), P01116 [UNDEFINED MUTATION]; assay: Inhibition of KRas mutant in human SW480 cells assessed as cell viability by measuring ATP at 20 uM relative to control; assay type: cell-based
[4] = test system: GTPase KRas (Homo sapiens), P01116 [UNDEFINED MUTATION]; assay: Inhibition of KRas mutant in human DLD1 cells assessed as cell viability by measuring ATP at 0.2 uM relative to control; assay type: cell-based
[5] = test system: GTPase KRas (Homo sapiens), P01116 [UNDEFINED MUTATION]; assay: Inhibition of KRas mutant in human DLD1 cells assessed as cell viability by measuring ATP at 2 uM relative to control; assay type: cell-based
[6] = test system: GTPase KRas (Homo sapiens), P01116 [UNDEFINED MUTATION]; assay: Inhibition of KRas mutant in human DLD1 cells assessed as cell viability by measuring ATP at 20 uM relative to control; assay type: cell-based
[7] = test system: GTPase KRas (Homo sapiens), P01116 [UNDEFINED MUTATION]; assay: Inhibition of KRas mutant in human HCT116 cells assessed as cell viability by measuring ATP at 0.2 uM relative to control; assay type: cell-based
[8] = test system: GTPase KRas (Homo sapiens), P01116 [UNDEFINED MUTATION]; assay: Inhibition of KRas mutant in human HCT116 cells assessed as cell viability by measuring ATP at 2 uM relative to control; assay type: cell-based
[9] = test system: GTPase KRas (Homo sapiens), P01116 [UNDEFINED MUTATION]; assay: Inhibition of KRas mutant in human HCT116 cells assessed as cell viability by measuring ATP at 20 uM relative to control; assay type: cell-based
[10] = test system: GTPase KRas (Homo sapiens), P01116 [UNDEFINED MUTATION]; assay: Inhibition of KRas mutant in human HCT116 cells […] assessed as cell viability by measuring ATP at 0.2 uM relative to control; assay type: cell-based
[11] = test system: GTPase KRas (Homo sapiens), P01116 [UNDEFINED MUTATION]; assay: Inhibition of KRas mutant in human HCT116 cells […] assessed as cell viability by measuring ATP at 2 uM relative to control; assay type: cell-based
[12] = test system: GTPase KRas (Homo sapiens), P01116 [UNDEFINED MUTATION]; assay: Inhibition of KRas mutant in human HCT116 cells […] assessed as cell viability by measuring ATP at 20 uM relative to control; assay type: cell-based
[13] = test system: GTPase KRas (Homo sapiens), P01116 [UNDEFINED MUTATION]; assay: Inhibition of KRas mutant in human SW480 cells assessed as cell viability by measuring ATP; assay type: cell-based
[14] = test system: GTPase KRas (Homo sapiens), P01116 [UNDEFINED MUTATION]; assay: Inhibition of KRas mutant in human DLD1 cells assessed as cell viability by measuring ATP; assay type: cell-based
[15] = test system: GTPase KRas (Homo sapiens), P01116 [UNDEFINED MUTATION]; assay: Inhibition of KRas mutant in human HCT116 cells assessed as cell viability by measuring ATP; assay type: cell-based
[16] = test system: GTPase KRas (Homo sapiens), P01116 [UNDEFINED MUTATION]; assay: Inhibition of KRas mutant in human HCT116 cells […] assessed as cell viability by measuring ATP; assay type: cell-based
HeLa [17] = assay: Cell cycle arrest in human HeLa cells assessed as effect on 2N stage incubated for 21 hrs by propidium iodide based flow cytometry; assay type: functional
HeLa [18] = assay: Cell cycle arrest in human HeLa cells assessed as effect on 4N stage incubated for 21 hrs by propidium iodide based flow cytometry; assay type: functional
HeLa [19] = assay: Cell cycle arrest in human HeLa cells assessed as effect on mitotic index incubated for 21 hrs by propidium iodide based flow cytometry; assay type: functional
HeLa [20] = assay: Cell cycle arrest in human HeLa cells incubated for 21 hrs by propidium iodide based flow cytometry; assay type: functional
HeLa [21] = assay: Cell cycle arrest in human HeLa cells assessed as effect on G1 phase incubated for 21 hrs by propidium iodide based flow cytometry; assay type: functional
HeLa [22] = assay: Cell cycle arrest in human HeLa cells assessed as effect on S phase incubated for 21 hrs by propidium iodide based flow cytometry; assay type: functional
[23] = Activation of wnt pathway in mouse C2C12 cells assessed as increase in alkaline phosphatase activity; assay type: cell-based
[24] = Activation of wnt pathway in mouse C2C12 cells assessed as increase in beta-catenin activity; assay type: cell-based
[25] = target: Microtubule-associated protein tau (Homo sapiens) (UniProt P10636); assay: Inhibition of human Tau at 40 uM relative to control
Microtubule-associated protein tau (Homo sapiens), sequence (P10636 whole entry): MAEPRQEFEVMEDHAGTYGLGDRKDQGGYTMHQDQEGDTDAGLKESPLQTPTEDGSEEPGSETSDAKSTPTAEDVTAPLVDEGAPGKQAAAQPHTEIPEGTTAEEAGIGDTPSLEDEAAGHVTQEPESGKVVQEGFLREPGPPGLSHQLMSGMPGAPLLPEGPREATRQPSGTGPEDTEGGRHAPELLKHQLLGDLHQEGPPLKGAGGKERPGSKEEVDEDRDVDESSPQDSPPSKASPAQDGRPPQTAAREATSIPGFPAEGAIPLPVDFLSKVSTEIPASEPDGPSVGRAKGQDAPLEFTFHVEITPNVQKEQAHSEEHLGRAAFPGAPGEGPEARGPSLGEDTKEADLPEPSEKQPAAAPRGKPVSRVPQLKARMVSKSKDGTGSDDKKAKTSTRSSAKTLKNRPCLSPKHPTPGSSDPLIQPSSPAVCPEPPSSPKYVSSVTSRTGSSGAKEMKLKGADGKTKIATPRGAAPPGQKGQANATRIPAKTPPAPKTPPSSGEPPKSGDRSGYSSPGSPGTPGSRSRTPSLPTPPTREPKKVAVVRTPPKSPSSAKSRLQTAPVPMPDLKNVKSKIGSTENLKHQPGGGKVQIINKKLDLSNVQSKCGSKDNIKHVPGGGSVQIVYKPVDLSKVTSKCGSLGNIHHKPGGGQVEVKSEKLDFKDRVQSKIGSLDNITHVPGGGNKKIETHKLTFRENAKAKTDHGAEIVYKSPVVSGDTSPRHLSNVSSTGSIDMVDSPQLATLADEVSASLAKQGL

[26] = target: T1, Angiopoietin-like protein 8 (Homo sapiens) (UniProt Q6UXH0); assay: Inhibition of human Angptl8 at 40 uM relative to control
T1 sequence (whole entry): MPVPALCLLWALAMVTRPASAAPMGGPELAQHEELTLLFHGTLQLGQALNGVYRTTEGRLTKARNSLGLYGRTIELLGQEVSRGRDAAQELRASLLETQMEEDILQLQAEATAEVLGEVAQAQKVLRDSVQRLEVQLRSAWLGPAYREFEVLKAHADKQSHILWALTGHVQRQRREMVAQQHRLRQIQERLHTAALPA

[27] = target: Apolipoprotein C-III (Homo sapiens) (UniProt P02656); assay: Inhibition of human APOC3 at 40 uM relative to control
Apolipoprotein C-III (Homo sapiens), sequence (P02656 whole entry): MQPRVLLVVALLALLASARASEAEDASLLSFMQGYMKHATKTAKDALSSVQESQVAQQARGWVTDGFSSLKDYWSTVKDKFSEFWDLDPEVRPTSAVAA

[28] = target: Proprotein convertase subtilisin/kexin type 9 (Homo sapiens) (UniProt Q8NBP7); assay: Inhibition of human PCSK9 at 40 uM relative to control
Proprotein convertase subtilisin/kexin type 9 (Homo sapiens), sequence (Q8NBP7 31-152 limits assumed): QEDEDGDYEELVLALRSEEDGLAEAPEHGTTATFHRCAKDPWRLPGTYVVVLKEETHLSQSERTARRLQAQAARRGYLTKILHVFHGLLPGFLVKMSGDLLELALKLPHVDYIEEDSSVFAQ
Proprotein convertase subtilisin/kexin type 9 (Homo sapiens), sequence (Q8NBP7 153-692 limits assumed): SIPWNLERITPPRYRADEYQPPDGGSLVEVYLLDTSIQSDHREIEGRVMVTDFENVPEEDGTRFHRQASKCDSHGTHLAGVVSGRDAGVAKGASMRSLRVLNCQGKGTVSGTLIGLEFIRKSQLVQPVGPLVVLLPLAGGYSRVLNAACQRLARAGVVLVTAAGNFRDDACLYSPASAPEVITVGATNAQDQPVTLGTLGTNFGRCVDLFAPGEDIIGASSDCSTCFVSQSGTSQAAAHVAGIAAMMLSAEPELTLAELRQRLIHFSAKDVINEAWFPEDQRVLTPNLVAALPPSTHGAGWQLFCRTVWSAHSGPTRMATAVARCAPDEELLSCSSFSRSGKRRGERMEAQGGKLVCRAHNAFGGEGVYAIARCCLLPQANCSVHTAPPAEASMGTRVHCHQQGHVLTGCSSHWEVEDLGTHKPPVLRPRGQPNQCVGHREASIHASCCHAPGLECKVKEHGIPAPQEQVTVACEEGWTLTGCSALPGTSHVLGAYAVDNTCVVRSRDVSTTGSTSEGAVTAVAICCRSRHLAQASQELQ

HT-29 [29] = assay: Antiproliferative activity against human HT-29 cells assessed as reduction in cell viability incubated for 24 hrs by MTT assay; assay type: functional, cell-based; conditions: HT-29, 24 h
HT-29 [30] = assay: Antiproliferative activity against human HT-29 cells assessed as reduction in cell viability incubated for 24 hrs in hypoxia condition by MTT assay; assay type: functional, cell-based; conditions: HT-29, 24 h
HT-29 [31] = assay: Selectivity index, ratio of IC50 of antiproliferative activity against human HT-29 cells in normoxia to IC50 of antiproliferative activity against human HT-29 cells in hypoxia condition; assay type: functional
CHO = assay: Cytotoxicity against CHO cells assessed as reduction in cell viability; assay type: cell-based; conditions: Cricetulus griseus
CYP1A1 = assay: Selectivity index, ratio of IC50 of cytotoxicity against CHO cells to IC50 for bioactivation in CYP1A1 (unknown origin) transfected CHO cells assessed as CYP1A1-mediated drug activation by measuring reduction in cell viability; assay type: cell-based; conditions: hamster, CHO cells and CYP1A1-transfected CHO cells; read-out: Ratio IC50
[32] = target: Sodium channel protein type 9 subunit alpha (Homo sapiens) (UniProt Q15858); assay: Inhibition of human Nav1.7 at 40 uM relative to control
Sodium channel protein type 9 subunit alpha (Homo sapiens), sequence (Q15858 whole entry, looked up): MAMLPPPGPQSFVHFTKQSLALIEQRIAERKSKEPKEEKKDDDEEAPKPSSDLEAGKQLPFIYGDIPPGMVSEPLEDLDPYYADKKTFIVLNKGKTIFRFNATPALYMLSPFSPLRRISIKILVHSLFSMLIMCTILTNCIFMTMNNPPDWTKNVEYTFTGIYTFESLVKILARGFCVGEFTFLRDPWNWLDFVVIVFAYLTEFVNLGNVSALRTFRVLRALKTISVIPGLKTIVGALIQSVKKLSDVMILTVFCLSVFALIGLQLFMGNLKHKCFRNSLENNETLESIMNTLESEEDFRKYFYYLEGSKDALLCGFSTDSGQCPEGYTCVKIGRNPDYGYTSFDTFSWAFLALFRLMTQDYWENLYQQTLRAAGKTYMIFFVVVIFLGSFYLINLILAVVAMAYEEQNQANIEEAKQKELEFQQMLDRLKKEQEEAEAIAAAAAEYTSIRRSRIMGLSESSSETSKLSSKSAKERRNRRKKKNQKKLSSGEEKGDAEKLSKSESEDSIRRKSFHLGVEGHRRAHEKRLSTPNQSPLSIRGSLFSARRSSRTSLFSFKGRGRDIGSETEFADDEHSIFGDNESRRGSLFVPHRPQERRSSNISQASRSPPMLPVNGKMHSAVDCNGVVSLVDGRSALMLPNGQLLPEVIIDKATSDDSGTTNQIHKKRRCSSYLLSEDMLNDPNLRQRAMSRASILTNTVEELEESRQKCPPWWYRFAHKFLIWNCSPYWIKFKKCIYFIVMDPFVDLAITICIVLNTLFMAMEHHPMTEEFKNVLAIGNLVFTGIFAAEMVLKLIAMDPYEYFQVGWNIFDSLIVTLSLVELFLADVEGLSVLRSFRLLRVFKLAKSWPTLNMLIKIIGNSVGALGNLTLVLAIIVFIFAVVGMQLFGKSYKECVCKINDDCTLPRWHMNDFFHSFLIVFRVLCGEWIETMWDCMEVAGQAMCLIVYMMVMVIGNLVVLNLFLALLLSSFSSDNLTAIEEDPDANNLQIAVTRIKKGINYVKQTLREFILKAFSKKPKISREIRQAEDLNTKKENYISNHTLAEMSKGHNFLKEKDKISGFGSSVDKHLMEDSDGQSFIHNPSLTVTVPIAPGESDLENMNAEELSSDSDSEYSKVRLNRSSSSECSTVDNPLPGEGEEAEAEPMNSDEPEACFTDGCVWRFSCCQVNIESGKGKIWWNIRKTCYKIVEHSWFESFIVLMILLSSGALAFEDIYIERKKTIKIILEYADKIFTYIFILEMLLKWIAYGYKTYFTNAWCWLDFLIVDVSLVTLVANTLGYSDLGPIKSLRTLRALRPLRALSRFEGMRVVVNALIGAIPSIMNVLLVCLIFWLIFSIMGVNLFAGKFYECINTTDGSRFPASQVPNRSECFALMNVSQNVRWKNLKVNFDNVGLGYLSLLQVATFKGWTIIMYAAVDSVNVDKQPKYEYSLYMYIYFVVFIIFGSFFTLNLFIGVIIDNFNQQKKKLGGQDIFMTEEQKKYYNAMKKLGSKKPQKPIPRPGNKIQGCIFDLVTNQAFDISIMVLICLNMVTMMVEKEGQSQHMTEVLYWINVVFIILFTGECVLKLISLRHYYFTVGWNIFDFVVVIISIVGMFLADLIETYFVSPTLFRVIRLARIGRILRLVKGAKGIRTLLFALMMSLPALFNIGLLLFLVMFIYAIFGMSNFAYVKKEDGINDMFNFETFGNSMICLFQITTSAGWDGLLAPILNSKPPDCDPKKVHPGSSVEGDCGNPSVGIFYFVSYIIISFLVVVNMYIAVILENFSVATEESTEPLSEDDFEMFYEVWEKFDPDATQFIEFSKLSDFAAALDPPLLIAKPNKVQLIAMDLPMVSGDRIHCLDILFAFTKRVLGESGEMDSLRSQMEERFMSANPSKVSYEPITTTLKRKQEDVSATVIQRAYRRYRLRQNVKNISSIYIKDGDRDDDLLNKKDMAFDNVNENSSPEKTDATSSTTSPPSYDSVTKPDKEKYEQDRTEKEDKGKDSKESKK

GTPase KRas (Homo sapiens), P01116 [UNDEFINED MUTATION], sequence (P01116 whole entry, looked up, change not shown): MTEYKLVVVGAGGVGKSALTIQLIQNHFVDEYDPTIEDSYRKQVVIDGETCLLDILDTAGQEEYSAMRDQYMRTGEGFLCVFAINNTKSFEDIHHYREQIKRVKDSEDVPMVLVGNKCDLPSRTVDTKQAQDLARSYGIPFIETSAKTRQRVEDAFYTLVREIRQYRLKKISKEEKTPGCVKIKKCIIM

Structure (SMILES)	inhibition [25] [%]	inhibition [26] [%]	inhibition [27] [%]	inhibition [28] [%]	inhibition [1] [%]	inhibition [2] [%]	inhibition [3] [%]	inhibition [4] [%]	inhibition [5] [%]	inhibition [6] [%]	inhibition [7] [%]	inhibition [8] [%]	inhibition [9] [%]	inhibition [10] [%]	inhibition [11] [%]	inhibition [12] [%]	inhibition [13]	inhibition [14]	inhibition [15]	inhibition [16]	further results
Cc1c2ccncc2c(C)c2c1[nH]c1ccccc12 [ELLIPTECINE]	–	–	–	–	–	–	–	–	–	–	–	–	–	–	–	–	–	–	–	–	IC50 (CHO): 20 nM; selectivity ratio (CYP1A1): 15.6
CCCCCCc1c2c(c(C)c3c1Oc1ccccc1O3)C(=O)OC2	11	24	17	-7	16	18	12	29	49	–	-3	7	15	26	10	2	–	–	–	–	inhibition [32]: -9%
CCCCCc1c2c(c(C)c3c1Oc1ccccc1O3)C(=O)OC2	–	–	–	–	11	21	40	–	17	40	-9	12	35	44	28	31	–	–	–	–	–

Further lines, with some results ahead:

inhibition [25] [%]	inhibition [26] [%]	inhibition [27] [%]	inhibition [28] [%]	Structure (SMILES)	inhibition [1] [%]	inhibition [2] [%]	inhibition [3] [%]	inhibition [4] [%]	inhibition [5] [%]	inhibition [6] [%]	inhibition [7] [%]	inhibition [8] [%]	inhibition [9] [%]	inhibition [10] [%]	inhibition [11] [%]	inhibition [12] [%]	inhibition [13]	inhibition [14]	inhibition [15]	inhibition [16]	further results
77	86	75	75	CCCCCCc1c2c(c(C)c3c1C(=O)OC3)Oc1ccccc1O2	21	58	86	14	50	112	12	60	91	52	69	62	Dose-dependent effect	Dose-dependent effect	Dose-dependent effect	Dose-dependent effect	IC50 (HeLa [17]): 2100 nM; EC50 (HeLa [18]): 2000 nM; EC50 (HeLa [19]): > 10000 nM; IC50 (HeLa [20]): 1800 nM; EC50 (HeLa [21]): > 10000 nM; IC50 (HeLa [22]): > 10000 nM; EC50 [23]: 7600 nM; EC50 [24]: > 20000 nM; IC50 (HT-29 [29]): 1330 nM; IC50 (HT-29 [30]): 8930 nM; Ratio IC50 (HT-29 [31]): 0.15; IC50 (CHO): 1520 nM; selectivity ratio (CYP1A1): 0.6
88	89	78	69	CCCCCc1c2c(c(C)c3c1C(=O)OC3)Oc1ccccc1O2	20	64	86	60	63	120	20	62	89	5	59	66	Dose-dependent effect	Dose-dependent effect	Dose-dependent effect	Dose-dependent effect	IC50 (HeLa [17]): 1800 nM; EC50 (HeLa [18]): 1600 nM; EC50 (HeLa [19]): 1400 nM; IC50 (HeLa [20]): 1000 nM; EC50 (HeLa [21]): > 10000 nM; IC50 (HeLa [22]): > 10000 nM; EC50 [23]: 6300 nM; inhibition [32]: 74%
35	37	17	40	Cc1c2c(c(CCCCBr)c3c1C(=O)OC3)Oc1ccccc1O2	–	4.4	55	0.4	0.4	20	2	9.5	108	12	20	28	–	–	–	–	–
